Measured values reported in the kinase profiling compilation of Christmann-Franck et al. (2016).
One block for each compound: values may come before it.

Assays:
Experiment in all cases: radiometric filter-binding kinase assay
[1] = target: MAP3K5 (human) (UniProt Q99683)
[2] = tested on: SGK1 (human), O00141 [S422D]
[3] = target: PAK7 (human) (UniProt Q9P286)
[4] = target: EEF2K (human) (UniProt O00418)
[5] = target: SYK (human) (UniProt P43405)
[6] = target: MAPK13 (human) (UniProt O15264)
[7] = target: MAPK12 (human) (UniProt P53778)
[8] = target: GSK3B (human) (UniProt P49841)
[9] = target: MARK1 (human) (UniProt Q9P0L2)
[10] = target: PHKG1 (human) (UniProt Q16816)
[11] = target: DYRK1A (human) (UniProt Q13627)
[12] = target: PIM3 (human) (UniProt Q86V86)
[13] = target: HIPK3 (human) (UniProt Q9H422)
Sequence of HIPK3 (human) (Q9H422 whole entry, looked up): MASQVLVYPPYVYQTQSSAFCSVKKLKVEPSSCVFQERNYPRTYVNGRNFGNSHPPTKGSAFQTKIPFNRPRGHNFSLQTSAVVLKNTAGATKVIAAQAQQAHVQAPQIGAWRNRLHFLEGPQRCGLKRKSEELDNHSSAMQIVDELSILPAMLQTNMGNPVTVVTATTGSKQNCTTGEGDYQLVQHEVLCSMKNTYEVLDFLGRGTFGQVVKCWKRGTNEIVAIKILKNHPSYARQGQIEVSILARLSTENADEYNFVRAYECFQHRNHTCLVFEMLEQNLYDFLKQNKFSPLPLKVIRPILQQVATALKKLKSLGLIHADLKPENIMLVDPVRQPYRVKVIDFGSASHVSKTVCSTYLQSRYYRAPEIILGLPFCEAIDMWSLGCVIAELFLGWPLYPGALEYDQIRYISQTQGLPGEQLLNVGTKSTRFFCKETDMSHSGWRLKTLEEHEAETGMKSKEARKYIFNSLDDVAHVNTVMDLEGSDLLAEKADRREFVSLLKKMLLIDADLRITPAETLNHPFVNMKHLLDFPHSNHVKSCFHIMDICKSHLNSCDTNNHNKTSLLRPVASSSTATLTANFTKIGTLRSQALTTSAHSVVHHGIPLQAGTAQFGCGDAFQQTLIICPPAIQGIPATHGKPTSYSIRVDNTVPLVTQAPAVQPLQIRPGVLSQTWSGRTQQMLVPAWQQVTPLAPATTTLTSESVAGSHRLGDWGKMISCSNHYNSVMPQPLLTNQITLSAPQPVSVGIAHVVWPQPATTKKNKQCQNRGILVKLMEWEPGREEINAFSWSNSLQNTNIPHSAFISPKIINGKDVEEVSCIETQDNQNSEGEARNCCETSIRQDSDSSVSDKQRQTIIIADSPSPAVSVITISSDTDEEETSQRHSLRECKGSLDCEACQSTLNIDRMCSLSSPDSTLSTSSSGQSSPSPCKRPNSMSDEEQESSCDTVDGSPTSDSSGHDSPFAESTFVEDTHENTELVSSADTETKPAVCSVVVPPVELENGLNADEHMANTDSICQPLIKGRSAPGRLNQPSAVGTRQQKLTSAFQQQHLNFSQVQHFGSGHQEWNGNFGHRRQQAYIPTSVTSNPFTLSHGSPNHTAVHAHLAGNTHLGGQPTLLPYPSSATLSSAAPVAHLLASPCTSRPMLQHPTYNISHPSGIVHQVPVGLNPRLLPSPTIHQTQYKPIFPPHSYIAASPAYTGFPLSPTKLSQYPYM

[14] = target: PIM1 (human) (UniProt P11309)
[15] = target: MAPK3 (human) (UniProt P27361)
[16] = target: BRSK1 (human) (UniProt Q8TDC3)
[17] = tested on: PRKAA1 or PRKAA2 (rat); conditions: accession and sequence are those of the human protein
[18] = target: MELK (human) (UniProt Q14680)
[19] = target: MAPKAPK5 (human) (UniProt Q8IW41)
Sequence of MAPKAPK5 (human) (Q8IW41 whole entry, looked up): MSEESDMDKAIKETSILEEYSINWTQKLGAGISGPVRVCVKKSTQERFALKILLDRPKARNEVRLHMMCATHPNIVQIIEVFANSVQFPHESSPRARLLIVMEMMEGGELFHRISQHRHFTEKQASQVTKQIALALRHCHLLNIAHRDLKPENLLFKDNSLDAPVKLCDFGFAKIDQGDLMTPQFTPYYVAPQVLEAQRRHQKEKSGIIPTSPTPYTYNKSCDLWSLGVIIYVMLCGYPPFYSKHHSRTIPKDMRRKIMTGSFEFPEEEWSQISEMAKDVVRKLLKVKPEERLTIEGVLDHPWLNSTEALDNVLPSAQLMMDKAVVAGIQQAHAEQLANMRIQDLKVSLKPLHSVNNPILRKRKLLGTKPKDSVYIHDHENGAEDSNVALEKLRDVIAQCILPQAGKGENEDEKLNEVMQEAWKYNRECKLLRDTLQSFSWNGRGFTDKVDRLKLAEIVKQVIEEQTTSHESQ

[20] = target: MAP2K2 (human) (UniProt P36507)
Sequence of MAP2K2 (human) (P36507 whole entry, looked up): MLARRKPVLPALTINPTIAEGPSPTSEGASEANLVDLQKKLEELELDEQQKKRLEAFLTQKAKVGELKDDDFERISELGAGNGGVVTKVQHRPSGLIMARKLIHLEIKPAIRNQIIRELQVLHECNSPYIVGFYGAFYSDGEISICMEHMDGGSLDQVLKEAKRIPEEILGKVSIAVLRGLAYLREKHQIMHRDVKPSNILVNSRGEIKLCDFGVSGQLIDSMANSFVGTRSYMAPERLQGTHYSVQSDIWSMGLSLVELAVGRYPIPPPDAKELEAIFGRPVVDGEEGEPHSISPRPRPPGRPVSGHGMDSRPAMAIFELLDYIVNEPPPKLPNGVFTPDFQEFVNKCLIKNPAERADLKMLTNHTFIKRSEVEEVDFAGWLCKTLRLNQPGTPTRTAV

[21] = target: PRKACA (human) (UniProt P17612)
[22] = target: CAMKK2 (human) (UniProt Q96RR4)
[23] = target: BRSK2 (human) (UniProt Q8IWQ3)
[24] = target: IKBKE (human) (UniProt Q14164)
[25] = target: EPHB4 (human) (UniProt P54760)
[26] = target: FGFR1 (human) (UniProt P11362)
[27] = target: MAPKAPK2 (human) (UniProt P49137)
[28] = target: PIM2 (human) (UniProt Q9P1W9)
Sequence of PIM2 (human) (Q9P1W9 whole entry, looked up): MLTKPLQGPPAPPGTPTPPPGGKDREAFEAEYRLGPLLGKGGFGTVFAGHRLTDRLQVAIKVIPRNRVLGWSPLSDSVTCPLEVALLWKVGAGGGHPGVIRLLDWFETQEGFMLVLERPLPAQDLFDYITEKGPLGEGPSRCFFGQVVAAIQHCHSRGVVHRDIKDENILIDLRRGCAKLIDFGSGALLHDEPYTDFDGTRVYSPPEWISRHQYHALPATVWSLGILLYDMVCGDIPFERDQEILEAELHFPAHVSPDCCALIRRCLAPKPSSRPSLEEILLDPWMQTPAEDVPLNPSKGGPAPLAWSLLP

[29] = target: STK3 (human) (UniProt Q13188)
[30] = target: MAPK9 (human) (UniProt P45984)
[31] = target: PRKCZ (human) (UniProt Q05513)
Sequence of PRKCZ (human) (Q05513 whole entry, looked up): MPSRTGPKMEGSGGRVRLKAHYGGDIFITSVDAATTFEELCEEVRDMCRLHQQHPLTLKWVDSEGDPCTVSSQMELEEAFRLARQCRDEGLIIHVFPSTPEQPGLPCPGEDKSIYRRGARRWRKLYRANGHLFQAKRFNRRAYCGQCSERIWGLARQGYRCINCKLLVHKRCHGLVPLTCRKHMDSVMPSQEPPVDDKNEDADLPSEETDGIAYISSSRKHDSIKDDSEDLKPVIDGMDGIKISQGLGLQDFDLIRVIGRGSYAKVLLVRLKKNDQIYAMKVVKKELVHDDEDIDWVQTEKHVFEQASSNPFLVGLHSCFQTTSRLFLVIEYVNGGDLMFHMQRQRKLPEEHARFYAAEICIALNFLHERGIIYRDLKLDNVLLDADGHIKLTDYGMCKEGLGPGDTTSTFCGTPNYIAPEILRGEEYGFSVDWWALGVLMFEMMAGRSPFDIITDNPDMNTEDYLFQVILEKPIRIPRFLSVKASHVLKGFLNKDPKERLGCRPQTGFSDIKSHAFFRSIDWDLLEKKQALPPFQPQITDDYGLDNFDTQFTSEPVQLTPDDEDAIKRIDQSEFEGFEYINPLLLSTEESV

[32] = target: ERBB4 (human) (UniProt Q15303)
Sequence of ERBB4 (human) (Q15303 whole entry, looked up): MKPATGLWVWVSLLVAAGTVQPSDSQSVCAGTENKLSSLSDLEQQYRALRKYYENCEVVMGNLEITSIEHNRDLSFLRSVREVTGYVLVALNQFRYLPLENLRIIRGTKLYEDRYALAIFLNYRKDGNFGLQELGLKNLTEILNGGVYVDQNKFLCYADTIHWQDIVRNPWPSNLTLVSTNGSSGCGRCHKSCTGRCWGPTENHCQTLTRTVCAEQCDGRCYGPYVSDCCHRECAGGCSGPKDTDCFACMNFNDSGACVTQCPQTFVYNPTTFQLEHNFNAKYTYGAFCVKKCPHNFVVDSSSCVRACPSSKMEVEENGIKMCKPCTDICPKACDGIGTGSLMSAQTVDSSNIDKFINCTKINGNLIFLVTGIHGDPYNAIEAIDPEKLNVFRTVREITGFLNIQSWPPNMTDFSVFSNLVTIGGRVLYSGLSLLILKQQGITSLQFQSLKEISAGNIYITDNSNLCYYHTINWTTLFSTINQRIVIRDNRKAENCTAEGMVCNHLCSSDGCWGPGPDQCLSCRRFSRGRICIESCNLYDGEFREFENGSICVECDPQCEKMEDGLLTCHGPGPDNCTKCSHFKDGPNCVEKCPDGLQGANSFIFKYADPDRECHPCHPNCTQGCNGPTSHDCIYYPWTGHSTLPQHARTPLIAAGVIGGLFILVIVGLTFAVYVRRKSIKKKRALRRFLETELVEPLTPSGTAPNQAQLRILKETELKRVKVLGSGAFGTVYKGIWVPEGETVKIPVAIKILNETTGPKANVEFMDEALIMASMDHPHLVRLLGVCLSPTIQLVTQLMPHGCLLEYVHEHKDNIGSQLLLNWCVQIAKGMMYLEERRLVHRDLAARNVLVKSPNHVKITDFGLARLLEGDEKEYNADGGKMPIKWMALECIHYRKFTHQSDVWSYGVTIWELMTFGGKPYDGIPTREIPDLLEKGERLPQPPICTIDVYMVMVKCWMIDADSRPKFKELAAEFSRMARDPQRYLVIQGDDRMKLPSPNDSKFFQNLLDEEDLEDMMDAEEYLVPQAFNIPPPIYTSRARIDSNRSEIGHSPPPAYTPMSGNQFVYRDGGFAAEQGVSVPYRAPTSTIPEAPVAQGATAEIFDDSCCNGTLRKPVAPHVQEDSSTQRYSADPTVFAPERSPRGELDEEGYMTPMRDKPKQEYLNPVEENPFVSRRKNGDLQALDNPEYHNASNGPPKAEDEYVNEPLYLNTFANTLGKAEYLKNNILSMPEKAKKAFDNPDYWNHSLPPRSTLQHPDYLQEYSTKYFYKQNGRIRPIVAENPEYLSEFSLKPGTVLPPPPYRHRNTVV

[33] = target: MKNK1 (human) (UniProt Q9BUB5)
[34] = target: DAPK1 (human) (UniProt P53355)
[35] = target: MAP2K6 (human) (UniProt P52564)
Sequence of MAP2K6 (human) (P52564 whole entry, looked up): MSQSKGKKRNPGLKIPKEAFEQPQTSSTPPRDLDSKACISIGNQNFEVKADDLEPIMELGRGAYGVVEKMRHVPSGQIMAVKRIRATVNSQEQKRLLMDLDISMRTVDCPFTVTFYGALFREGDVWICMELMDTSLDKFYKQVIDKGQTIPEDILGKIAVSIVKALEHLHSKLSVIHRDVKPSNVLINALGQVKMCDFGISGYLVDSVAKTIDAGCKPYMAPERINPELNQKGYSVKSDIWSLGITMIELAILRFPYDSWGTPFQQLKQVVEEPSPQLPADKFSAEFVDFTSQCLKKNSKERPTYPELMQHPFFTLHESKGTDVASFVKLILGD

[36] = target: IGF1R (human) (UniProt P08069)

residual activity ([1]; compound 0.1 µM): 103%
residual activity ([1]; compound 1.0 µM): 128%
residual activity ([1]; compound 10.0 µM): 111%
residual activity ([2]; compound 0.1 µM): 95%
residual activity ([2]; compound 1.0 µM): 107%
residual activity ([2]; compound 10.0 µM): 84%
residual activity ([3]; compound 0.1 µM): 93%
residual activity ([3]; compound 1.0 µM): 97%
residual activity ([3]; compound 10.0 µM): 50%
residual activity ([4]; compound 0.1 µM): 88%
residual activity ([4]; compound 10.0 µM): 90%
residual activity ([5]; compound 0.1 µM): 90%
residual activity ([5]; compound 1.0 µM): 100%
residual activity ([5]; compound 10.0 µM): 52%
residual activity ([6]; compound 0.1 µM): 88%
residual activity ([6]; compound 1.0 µM): 104%
residual activity ([6]; compound 10.0 µM): 80%
residual activity ([7]; compound 0.1 µM): 89%
residual activity ([7]; compound 1.0 µM): 112%
residual activity ([8]; compound 0.1 µM): 104%
residual activity ([8]; compound 1.0 µM): 95%
residual activity ([8]; compound 10.0 µM): 75%
residual activity ([9]; compound 0.1 µM): 101%
residual activity ([9]; compound 1.0 µM): 103%
residual activity ([9]; compound 10.0 µM): 88%
residual activity ([10]; compound 1.0 µM): 104%
residual activity ([10]; compound 10.0 µM): 92%
residual activity ([11]; compound 0.1 µM): 112%
residual activity ([11]; compound 1.0 µM): 105%
residual activity ([11]; compound 10.0 µM): 87%
residual activity ([12]; compound 0.1 µM): 94%
residual activity ([12]; compound 1.0 µM): 96%
residual activity ([12]; compound 10.0 µM): 88%
residual activity ([13]; compound 0.1 µM): 100%
residual activity ([13]; compound 1.0 µM): 123%
residual activity ([13]; compound 10.0 µM): 110%
residual activity ([14]; compound 0.1 µM): 98%
residual activity ([14]; compound 1.0 µM): 95%
residual activity ([14]; compound 10.0 µM): 81%
residual activity ([15]; compound 0.1 µM): 83%
residual activity ([15]; compound 10.0 µM): 84%
residual activity ([16]; compound 10.0 µM): 49%
residual activity ([17]; compound 0.1 µM): 88%
residual activity ([17]; compound 1.0 µM): 101%
residual activity ([17]; compound 10.0 µM): 78%
residual activity ([18]; compound 0.1 µM): 69%
residual activity ([18]; compound 10.0 µM): 56%
residual activity ([19]; compound 0.1 µM): 101%
residual activity ([19]; compound 1.0 µM): 107%
residual activity ([19]; compound 10.0 µM): 83%
residual activity ([20]; compound 0.1 µM): 94%
residual activity ([20]; compound 1.0 µM): 94%
residual activity ([20]; compound 10.0 µM): 63%
residual activity ([21]; compound 0.1 µM): 89%
residual activity ([21]; compound 1.0 µM): 101%
residual activity ([21]; compound 10.0 µM): 97%
residual activity ([22]; compound 0.1 µM): 86%
residual activity ([22]; compound 1.0 µM): 109%
residual activity ([22]; compound 10.0 µM): 80%
residual activity ([23]; compound 0.1 µM): 100%
residual activity ([23]; compound 1.0 µM): 91%
residual activity ([23]; compound 10.0 µM): 61%
residual activity ([24]; compound 0.1 µM): 100%
residual activity ([24]; compound 1.0 µM): 95%
residual activity ([24]; compound 10.0 µM): 66%
residual activity ([25]; compound 0.1 µM): 83%
residual activity ([25]; compound 1.0 µM): 74%
residual activity ([25]; compound 10.0 µM): 39%
residual activity ([26]; compound 0.1 µM): 52%
residual activity ([26]; compound 1.0 µM): 24%
residual activity ([26]; compound 10.0 µM): 15%
residual activity ([27]; compound 0.1 µM): 88%
residual activity ([27]; compound 1.0 µM): 95%
residual activity ([27]; compound 10.0 µM): 90%
residual activity ([28]; compound 0.1 µM): 99%
residual activity ([28]; compound 1.0 µM): 100%
residual activity ([28]; compound 10.0 µM): 97%
residual activity ([29]; compound 0.1 µM): 88%
residual activity ([29]; compound 1.0 µM): 65%
residual activity ([29]; compound 10.0 µM): 41%
residual activity ([30]; compound 0.1 µM): 89%
residual activity ([30]; compound 1.0 µM): 101%
residual activity ([31]; compound 0.1 µM): 90%
residual activity ([31]; compound 1.0 µM): 98%
residual activity ([31]; compound 10.0 µM): 81%
residual activity ([32]; compound 0.1 µM): 7%
residual activity ([32]; compound 1.0 µM): 8%
residual activity ([32]; compound 10.0 µM): 5%
residual activity ([33]; compound 0.1 µM): 91%
residual activity ([33]; compound 1.0 µM): 115%
residual activity ([33]; compound 10.0 µM): 84%
residual activity ([34]; compound 0.1 µM): 95%
residual activity ([34]; compound 1.0 µM): 95%
residual activity ([34]; compound 10.0 µM): 84%
residual activity ([35]; compound 0.1 µM): 82%
residual activity ([35]; compound 1.0 µM): 97%
residual activity ([35]; compound 10.0 µM): 61%
residual activity ([36]; compound 0.1 µM): 95%
residual activity ([36]; compound 1.0 µM): 93%
residual activity ([36]; compound 10.0 µM): 63%
SMILES: C=CC(=O)N1CCC[C@@H](n2nc(-c3ccc(Oc4ccccc4)cc3)c3c(N)ncnc32)C1

residual activity ([1]; compound 1.0 µM): 129%
residual activity ([1]; compound 5.0 µM): 154%
residual activity ([2]; compound 1.0 µM): 89%
residual activity ([2]; compound 5.0 µM): 48%
residual activity ([2]; compound 10.0 µM): 107%
residual activity ([3]; compound 1.0 µM): 99%
residual activity ([3]; compound 5.0 µM): 49%
residual activity ([3]; compound 10.0 µM): 121%
residual activity ([4]; compound 1.0 µM): 83%
residual activity ([4]; compound 5.0 µM): 60%
residual activity ([4]; compound 10.0 µM): 89%
residual activity ([5]; compound 1.0 µM): 77%
residual activity ([5]; compound 5.0 µM): 12%
residual activity ([5]; compound 10.0 µM): 92%
residual activity ([6]; compound 1.0 µM): 102%
residual activity ([6]; compound 5.0 µM): 102%
residual activity ([6]; compound 10.0 µM): 104%
residual activity ([7]; compound 1.0 µM): 97%
residual activity ([7]; compound 5.0 µM): 99%
residual activity ([7]; compound 10.0 µM): 103%
residual activity ([8]; compound 1.0 µM): 68%
residual activity ([8]; compound 5.0 µM): 30%
residual activity ([8]; compound 10.0 µM): 106%
residual activity ([9]; compound 1.0 µM): 65%
residual activity ([9]; compound 5.0 µM): 38%
residual activity ([10]; compound 1.0 µM): 100%
residual activity ([10]; compound 5.0 µM): 103%
residual activity ([10]; compound 10.0 µM): 108%
residual activity ([11]; compound 1.0 µM): 47%
residual activity ([11]; compound 5.0 µM): 19%
residual activity ([11]; compound 10.0 µM): 83%
residual activity ([12]; compound 1.0 µM): 76%
residual activity ([12]; compound 5.0 µM): 17%
residual activity ([12]; compound 10.0 µM): 58%
residual activity ([13]; compound 1.0 µM): 37%
residual activity ([13]; compound 5.0 µM): 33%
residual activity ([14]; compound 1.0 µM): 37%
residual activity ([14]; compound 5.0 µM): 15%
residual activity ([14]; compound 10.0 µM): 46%
residual activity ([15]; compound 1.0 µM): 9%
residual activity ([15]; compound 5.0 µM): 6%
residual activity ([15]; compound 10.0 µM): 8%
residual activity ([16]; compound 1.0 µM): 29%
residual activity ([16]; compound 5.0 µM): 24%
residual activity ([17]; compound 1.0 µM): 55%
residual activity ([17]; compound 5.0 µM): 27%
residual activity ([17]; compound 10.0 µM): 90%
residual activity ([18]; compound 1.0 µM): 13%
residual activity ([18]; compound 5.0 µM): 14%
residual activity ([18]; compound 10.0 µM): 97%
residual activity ([19]; compound 1.0 µM): 86%
residual activity ([19]; compound 5.0 µM): 46%
residual activity ([19]; compound 10.0 µM): 102%
residual activity ([20]; compound 1.0 µM): 90%
residual activity ([20]; compound 5.0 µM): 48%
residual activity ([21]; compound 1.0 µM): 101%
residual activity ([21]; compound 5.0 µM): 92%
residual activity ([21]; compound 10.0 µM): 100%
residual activity ([22]; compound 1.0 µM): 98%
residual activity ([22]; compound 5.0 µM): 49%
residual activity ([22]; compound 10.0 µM): 90%
residual activity ([23]; compound 1.0 µM): 39%
residual activity ([23]; compound 5.0 µM): 14%
residual activity ([23]; compound 10.0 µM): 48%
residual activity ([24]; compound 1.0 µM): 7%
residual activity ([24]; compound 5.0 µM): 4%
residual activity ([24]; compound 10.0 µM): 70%
residual activity ([25]; compound 1.0 µM): 109%
residual activity ([25]; compound 5.0 µM): 119%
residual activity ([26]; compound 1.0 µM): 24%
residual activity ([26]; compound 5.0 µM): 4%
residual activity ([26]; compound 10.0 µM): 29%
residual activity ([27]; compound 1.0 µM): 90%
residual activity ([27]; compound 5.0 µM): 69%
residual activity ([27]; compound 10.0 µM): 76%
residual activity ([28]; compound 1.0 µM): 65%
residual activity ([28]; compound 5.0 µM): 21%
residual activity ([28]; compound 10.0 µM): 81%
residual activity ([29]; compound 1.0 µM): 5%
residual activity ([29]; compound 5.0 µM): 6%
residual activity ([29]; compound 10.0 µM): 51%
residual activity ([30]; compound 1.0 µM): 94%
residual activity ([30]; compound 5.0 µM): 80%
residual activity ([30]; compound 10.0 µM): 94%
residual activity ([31]; compound 1.0 µM): 44%
residual activity ([31]; compound 5.0 µM): 11%
residual activity ([31]; compound 10.0 µM): 39%
residual activity ([32]; compound 1.0 µM): 62%
residual activity ([32]; compound 5.0 µM): 49%
residual activity ([33]; compound 1.0 µM): 88%
residual activity ([33]; compound 5.0 µM): 76%
residual activity ([33]; compound 10.0 µM): 100%
residual activity ([34]; compound 1.0 µM): 101%
residual activity ([34]; compound 5.0 µM): 83%
residual activity ([35]; compound 1.0 µM): 93%
residual activity ([35]; compound 5.0 µM): 70%
residual activity ([36]; compound 1.0 µM): 87%
residual activity ([36]; compound 5.0 µM): 94%
residual activity ([36]; compound 10.0 µM): 84%
SMILES: Oc1ccc2ccccc2c1SSc1c(O)ccc2ccccc12
